Test system: MCF-7 breast cancer cells
Test: Microarray gene expression analysis (Agilent whole human genome 4 x 44K; compound vs DMSO, LIMMA log2 fold change)
Type: cell-based
Conditions: cell cycle genes

`Cn1ncc2c(N3CCOCC3)nc(-c3cccc(O)c3)nc21` [ETP-45658] was tested, and the “CDC25B log2FC” value (Gene 994) was -0.243, the “CDC25C log2FC” value (Gene 995) was 1.417 and the “CDC34 log2FC” value (Gene 997) was 0.349. For the same compound, the “CDC42 log2FC” value (Gene 998) was 0.143, the “CDK2 log2FC” value (Gene 1017) was -0.519 and the “CDK3 log2FC” value (Gene 1018) was -0.108. For the same compound, the “CDK4 log2FC” value (Gene 1019) was 0.113, the “CDK5 log2FC” value (Gene 1020) was -0.089 and the “CDK7 log2FC” value (Gene 1022) was 0.920. The “CDKN1A log2FC” value (Gene 1026) was -1.401, the “CDKN1B log2FC” value (Gene 1027) was 1.129 and the “CDKN1C log2FC” value (Gene 1028) was 0.689. The “CDKN2A log2FC” value (Gene 1029) was 0.240, the “CDKN2D log2FC” value (Gene 1032) was 0.891 and the “CDKN3 log2FC” value (Gene 1033) was 0.104. The “CENPA log2FC” value (Gene 1058) was 0.094, the “CENPE log2FC” value (Gene 1062) was 1.101 and the “CENPF log2FC” value (Gene 1063) was 1.562. The “CETN2 log2FC” value (Gene 1069) was 0.059, the “CHD3 log2FC” value (Gene 1107) was -0.048 and the “CHEK1 log2FC” value (Gene 1111) was 0.461. The “CKS1B log2FC” value (Gene 1163) was 0.101, the “CKS2 log2FC” value (Gene 1164) was -0.752 and the “CLTC log2FC” value (Gene 1213) was 0.237. The “PLK3 log2FC” value (Gene 1263) was -1.808, the “ATF2 log2FC” value (Gene 1386) was 0.857 and the “CREBL2 log2FC” value (Gene 1389) was 0.823. For the same compound, the “MAPK14 log2FC” value (Gene 1432) was -0.291, the “CSNK1A1 log2FC” value (Gene 1452) was 0.166 and the “CSNK1D log2FC” value (Gene 1453) was -0.308. For the same compound, the “CSNK1E log2FC” value (Gene 1454) was -0.533, the “CSNK2A1 log2FC” value (Gene 1457) was -0.545 and the “CTBP1 log2FC” value (Gene 1487) was -0.371. The “CTGF log2FC” value (Gene 1490) was -0.597, the “CYLD log2FC” value (Gene 1540) was 0.499 and the “CYP27B1 log2FC” value (Gene 1594) was -0.054. For the same compound, the “DAPK3 log2FC” value (Gene 1613) was -0.132, the “DDB1 log2FC” value (Gene 1642) was 0.227 and the “DDIT3 log2FC” value (Gene 1649) was 2.364. For the same compound, the “DDX3X log2FC” value (Gene 1654) was -1.156, the “DHCR24 log2FC” value (Gene 1718) was -0.643 and the “DHFR log2FC” value (Gene 1719) was 0.876. The “DLG1 log2FC” value (Gene 1739) was 0.053, the “DMRT1 log2FC” value (Gene 1761) was 0.148 and the “DYNC1I2 log2FC” value (Gene 1781) was 0.828. The “DNM2 log2FC” value (Gene 1785) was -0.047, the “DRD3 log2FC” value (Gene 1814) was -0.082 and the “DUSP1 log2FC” value (Gene 1843) was -0.931. The “DUSP3 log2FC” value (Gene 1845) was 0.560, the “DYRK1A log2FC” value (Gene 1859) was 0.448 and the “E2F1 log2FC” value (Gene 1869) was -0.356. For the same compound, the “E2F2 log2FC” value (Gene 1870) was -0.581, the “E2F3 log2FC” value (Gene 1871) was -0.373 and the “E2F4 log2FC” value (Gene 1874) was -0.621. For the same compound, the “E2F5 log2FC” value (Gene 1875) was 0.382, the “E2F6 log2FC” value (Gene 1876) was -0.321 and the “E4F1 log2FC” value (Gene 1877) was 0.414. For the same compound, the “ECT2 log2FC” value (Gene 1894) was 1.058, the “EDN3 log2FC” value (Gene 1908) was -0.056 and the “EGF log2FC” value (Gene 1950) was -0.024. For the same compound, the “EGFR log2FC” value (Gene 1956) was 0.311, the “EIF4EBP1 log2FC” value (Gene 1978) was -0.081 and the “EIF4G2 log2FC” value (Gene 1982) was 0.237. For the same compound, the “EMD log2FC” value (Gene 2010) was -0.178, the “ENSA log2FC” value (Gene 2029) was -0.068 and the “EPS8 log2FC” value (Gene 2059) was 0.516. The “ERCC2 log2FC” value (Gene 2068) was -0.566, the “ERCC3 log2FC” value (Gene 2071) was -0.084 and the “ERCC4 log2FC” value (Gene 2072) was 0.186. The “ERF log2FC” value (Gene 2077) was 0.135, the “ERH log2FC” value (Gene 2079) was -0.238 and the “ERN1 log2FC” value (Gene 2081) was -0.168. The “ETS1 log2FC” value (Gene 2113) was -0.590, the “EZH2 log2FC” value (Gene 2146) was 0.722 and the “FANCG log2FC” value (Gene 2189) was -0.077. For the same compound, the “FEN1 log2FC” value (Gene 2237) was -0.980, the “FER log2FC” value (Gene 2241) was 0.332 and the “FGF2 log2FC” value (Gene 2247) was 0.202. The “FGF8 log2FC” value (Gene 2253) was -0.131, the “FGF10 log2FC” value (Gene 2255) was 0.033 and the “FGFR1 log2FC” value (Gene 2260) was -0.387. For the same compound, the “FGFR3 log2FC” value (Gene 2261) was -0.382, the “FGFR2 log2FC” value (Gene 2263) was 1.543 and the “FHL1 log2FC” value (Gene 2273) was 0.046. The “FOXC1 log2FC” value (Gene 2296) was -0.876, the “FOXM1 log2FC” value (Gene 2305) was -0.360 and the “FLNA log2FC” value (Gene 2316) was -0.229. For the same compound, the “FNTB log2FC” value (Gene 2342) was -0.574, the “GAS1 log2FC” value (Gene 2619) was 0.711 and the “GAS2 log2FC” value (Gene 2620) was 0.183. The “GAS6 log2FC” value (Gene 2621) was -0.052, the “GFI1 log2FC” value (Gene 2672) was 0.062 and the “GNAI1 log2FC” value (Gene 2770) was 1.186. For the same compound, the “GNAI2 log2FC” value (Gene 2771) was -0.343, the “GNAI3 log2FC” value (Gene 2773) was 0.669 and the “SFN log2FC” value (Gene 2810) was -1.182. For the same compound, the “GPR3 log2FC” value (Gene 2827) was -0.277, the “GPS1 log2FC” value (Gene 2873) was -0.145 and the “GPS2 log2FC” value (Gene 2874) was -0.087. For the same compound, the “GSK3B log2FC” value (Gene 2932) was -0.607, the “GSPT1 log2FC” value (Gene 2935) was -0.172 and the “MSH6 log2FC” value (Gene 2956) was 0.235. For the same compound, the “GTF2H1 log2FC” value (Gene 2965) was 0.573, the “H2AFX log2FC” value (Gene 3014) was -1.128 and the “HCFC1 log2FC” value (Gene 3054) was -0.769. For the same compound, the “HDAC1 log2FC” value (Gene 3065) was -0.487, the “HDAC2 log2FC” value (Gene 3066) was 0.164 and the “HGF log2FC” value (Gene 3082) was -0.369. The “HHEX log2FC” value (Gene 3087) was -0.222, the “FOXA1 log2FC” value (Gene 3169) was 0.031 and the “HOXA13 log2FC” value (Gene 3209) was 0.081. For the same compound, the “HRAS log2FC” value (Gene 3265) was -0.664, the “PRMT2 log2FC” value (Gene 3275) was 0.361 and the “HES1 log2FC” value (Gene 3280) was -1.195. For the same compound, the “HSF1 log2FC” value (Gene 3297) was 0.106, the “HSPA2 log2FC” value (Gene 3306) was -1.351 and the “HSP90AA1 log2FC” value (Gene 3320) was 1.066. For the same compound, the “ID2 log2FC” value (Gene 3398) was 1.025, the “ID3 log2FC” value (Gene 3399) was -0.237 and the “IFNG log2FC” value (Gene 3458) was -0.055. For the same compound, the “IGF1 log2FC” value (Gene 3479) was 0.046, the “IGF1R log2FC” value (Gene 3480) was 0.075 and the “IGF2 log2FC” value (Gene 3481) was 0.014. For the same compound, the “IL1A log2FC” value (Gene 3552) was -0.044, the “IL1B log2FC” value (Gene 3553) was -0.057 and the “IL8 log2FC” value (Gene 3576) was -1.203. For the same compound, the “IL12B log2FC” value (Gene 3593) was -0.025, the “ILF3 log2FC” value (Gene 3609) was -0.460 and the “ILK log2FC” value (Gene 3611) was -0.066. The “INCENP log2FC” value (Gene 3619) was -0.174, the “ING2 log2FC” value (Gene 3622) was 0.424 and the “INHA log2FC” value (Gene 3623) was -0.101. For the same compound, the “INSM1 log2FC” value (Gene 3642) was -0.209, the “INSR log2FC” value (Gene 3643) was 0.664 and the “IRF6 log2FC” value (Gene 3664) was 0.370. For the same compound, the “ITGB1 log2FC” value (Gene 3688) was 0.722, the “JUN log2FC” value (Gene 3725) was -0.912 and the “JUNB log2FC” value (Gene 3726) was -0.596. The “KIF11 log2FC” value (Gene 3832) was 0.922, the “KRT18 log2FC” value (Gene 3875) was -0.481 and the “STMN1 log2FC” value (Gene 3925) was 0.176. For the same compound, the “LIF log2FC” value (Gene 3976) was -1.818, the “LIG1 log2FC” value (Gene 3978) was -0.097 and the “LIG3 log2FC” value (Gene 3980) was -0.509. The “LLGL2 log2FC” value (Gene 3993) was -0.345, the “LRP5 log2FC” value (Gene 4041) was -0.510 and the “MAD2L1 log2FC” value (Gene 4085) was 0.081. For the same compound, the “SMAD3 log2FC” value (Gene 4088) was 0.254, the “MCM3 log2FC” value (Gene 4172) was -0.047 and the “MCM5 log2FC” value (Gene 4174) was -0.158. The “MCM7 log2FC” value (Gene 4176) was 0.104, the “MDM2 log2FC” value (Gene 4193) was -0.059 and the “MDM4 log2FC” value (Gene 4194) was 0.064. The “RAB8A log2FC” value (Gene 4218) was -0.531, the “MIF log2FC” value (Gene 4282) was 0.242 and the “MKI67 log2FC” value (Gene 4288) was 0.040.

Reference: PMC4303209, “A novel phosphatidylinositol 3-kinase (PI3K) inhibitor directs a potent FOXO-dependent, p53-independent cell cycle arrest phenotype characterized by the differential induction of a subset of FOXO-regulated genes” (Breast Cancer Research : BCR, 2014)
